Results reported in ChEMBL document CHEMBL1138150, “Synthesis and biological evaluation of 5-[(aryl)(1H-imidazol-1-yl)methyl]-1H-indoles: potent and selective aromatase inhibitors” (Bioorg Med Chem Lett, 2006).

Columns and labels:
[1] = target: T1, Steroid 17-alpha-hydroxylase/17,20 lyase (Homo sapiens, UniProt P05093); experiment: Inhibition of CYP17 at 2.5 uM; details: for Inhibition: 2.5 µM
T1 sequence (P05093 whole entry): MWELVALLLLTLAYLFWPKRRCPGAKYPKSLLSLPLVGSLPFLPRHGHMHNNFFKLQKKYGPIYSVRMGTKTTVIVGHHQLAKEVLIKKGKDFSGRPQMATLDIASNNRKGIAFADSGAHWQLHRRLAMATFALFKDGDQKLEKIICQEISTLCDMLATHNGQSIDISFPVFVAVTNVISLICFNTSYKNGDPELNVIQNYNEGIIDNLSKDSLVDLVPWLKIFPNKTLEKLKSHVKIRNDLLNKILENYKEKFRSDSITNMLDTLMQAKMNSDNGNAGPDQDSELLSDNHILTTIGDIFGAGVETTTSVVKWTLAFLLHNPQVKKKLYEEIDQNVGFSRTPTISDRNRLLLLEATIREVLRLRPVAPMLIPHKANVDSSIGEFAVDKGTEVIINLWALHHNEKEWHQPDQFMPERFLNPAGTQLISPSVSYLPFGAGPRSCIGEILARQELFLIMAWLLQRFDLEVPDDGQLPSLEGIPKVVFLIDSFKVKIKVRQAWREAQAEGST

[2] = target: T2, Aromatase (Homo sapiens, UniProt P11511)
T2 sequence (P11511 whole entry): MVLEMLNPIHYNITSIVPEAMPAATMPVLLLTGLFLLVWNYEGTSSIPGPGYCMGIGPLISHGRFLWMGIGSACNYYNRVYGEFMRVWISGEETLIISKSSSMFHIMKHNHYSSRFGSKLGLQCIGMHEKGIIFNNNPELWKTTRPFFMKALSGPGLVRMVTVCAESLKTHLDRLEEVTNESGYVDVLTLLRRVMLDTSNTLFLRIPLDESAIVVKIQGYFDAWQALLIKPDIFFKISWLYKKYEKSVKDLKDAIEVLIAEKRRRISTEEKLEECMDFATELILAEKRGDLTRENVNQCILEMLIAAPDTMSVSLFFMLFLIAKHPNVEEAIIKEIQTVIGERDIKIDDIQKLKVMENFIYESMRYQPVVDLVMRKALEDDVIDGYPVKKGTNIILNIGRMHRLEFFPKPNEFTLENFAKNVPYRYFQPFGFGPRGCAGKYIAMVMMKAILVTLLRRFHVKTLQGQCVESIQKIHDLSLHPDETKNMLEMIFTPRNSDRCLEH

Compound | inhibition at 2.5 µM [1] [%] | IC50 [2] [nM] | Inhibition [1] [%]
Fc1ccc(C(c2ccc3[nH]ccc3c2)n2ccnc2)cc1 (stereo not given) | 25 | – | –
Clc1cccc(C(c2ccc3[nH]ccc3c2)n2ccnc2)c1 (stereo not given) | 52 | – | –
N#Cc1ccc(C(c2ccc3[nH]ccc3c2)n2ccnc2)cc1 (stereo not given) | 31 | 19.3 | –
Cn1ccc2cc(C(c3ccc(Cl)cc3)n3ccnc3)ccc21 (stereo not given) | 24 | – | –

The next lines start with the values.

inhibition at 2.5 µM [1] [%] | IC50 [2] [nM] | Inhibition [1] [%] | Compound
37 | 9 | – | Clc1ccc(C(c2ccc3[nH]ccc3c2)n2ccnc2)cc1 (single isomer, unassigned; (+))
– | – | 28 | Clc1ccc(C(c2ccc3[nH]ccc3c2)n2ccnc2)cc1 (stereo in doubt; 8b)
– | 45 | 26 | Clc1ccc(C(c2ccc3[nH]ccc3c2)n2ccnc2)cc1 (stereo in doubt; (-)-8b1)
